The source of these data is patent publication US12115209B2, “ROMO1-derived antimicrobial peptides including lysine substitution and variants thereof” (KOREA UNIVERSITY RESEARCH AND BUSINESS FOUNDATION, priority 2019, dated 2024).

Non-standard residues stand in square brackets, D forms with d. Residues, ends and D or L forms follow the SMILES beside them. No end group written: not given here.

What all share (type): cell-based
Series [1] relates to mouse red blood cells. How it is done: Red blood cells were diluted with PBS, centrifuged 3 times at 900 g for 10 minutes, and washed. 100 μl of the diluted red blood cell solution (10% v/v PBS) was dispensed into each well of a 96-well microplate, and KU-5878, KU-5878-K4, KU-5878-K4-D, melittin, magainin 2 or daptomycin was added to each well which was then filled with PBS to 200 μl, followed by reaction by incubation at 37° C. for 1 hour. Then, the supernatant of the reaction solution was separated, and the absorbance at a wavelength of 550 nm was measured using a spectrophotometer. As control, PBS and 0.1% Triton X-100 (Triton X-100) solution were used.
Based on the results of measurement of the absorbance, the degree of red blood cell destruction was calculated according to Equation 1 below, and the results of the calculation are shown in FIG. 6. % The intact RBC=100(%)−[(absorbance of peptide-treated red blood cell solution−absorbance of PBS-treated red blood cell solution)/(absorbance of Triton X-100-treated red blood cell solution−absorbance of PBS-treated red blood cell solution)×100(%)] [Equation 1]

The subject of series [2] is Bacillus subtilis (ATCC 6633). The settings on record: ATCC 6633, 4 h. The procedure: (§1) Specifically, each type of bacteria was cultured in 3% (w/v) TSB (tryptic soy broth) liquid medium at 37° C. and 200 rpm for 4 hours, and then further cultured under the same conditions for 3 hours to a concentration of 5×10^6 CFU/ml. Strain solutions were prepared by diluting each of the further cultured strains with SP buffer to a final concentration of 2×10^5 CFU/ml.
(§2) Then, the KU-5878 peptide at varying concentrations (0 μg/ml to 300 μg/ml) was dispensed into each well of a 96-well microplate, and 100 μl (1×10^5 CFU/ml) of each of the prepared strain solutions was added thereto, mixed therewith, and allowed to react with the peptide in an incubator at 37° C. for 1 hour.
(§3) In addition, 10 μl of each reaction solution of the peptide and the strain was plated on the TS agar plate at a constant size, and incubated in an incubator at 37° C. for 18 hours, and then colony formation on the plate was checked. The minimum bactericidal concentration was defined as the minimum concentration of the peptide at which no colony was formed, and the experimental results are shown in Table 2 below.

The subject of series [3] is Escherichia coli (ATCC 25922). The settings on record: ATCC 25922, 4 h. The procedure:
as §1, §2, §3

Series [4] has as its system Enterobacter aerogenes (ATCC 13048). The following applies: ATCC 13048, 4 h. The procedure: as §1, §2, §3
Series [5] relates to Streptomyces sindenensis (ATCC 12392). The following applies: ATCC 12392, 4 h. The procedure: as §1, §2, §3
Series [6] concerns Enterococcus faecalis (ATCC 19433). The following applies: ATCC 19433, 4 h. The procedure:
as §1, §2, §3

For series [7], the system named is Acinetobacter baumannii (ATCC 19606). The settings on record: ATCC 19606, 4 h. How it is done: as §1, §2, §3
Series [8] relates to Enterococcus faecium (ATCC 19434). The following applies: ATCC 19434, 4 h. The procedure: as §1, §2, §3
In series [9] the test system is Klebsiella pneumoniae (ATCC 13883). The following applies: ATCC 13883, 4 h. How it is done: as §1, §2, §3

For the molecule `CC[C@H](C)[C@H](NC(=O)CNC(=O)[C@H](CCSC)NC(=O)CNC(=O)[C@@H](NC(=O)[C@H](C)NC(=O)[C@H](CCSC)NC(=O)[C@H](Cc1ccccc1)NC(=O)[C@@H](NC(=O)CNC(=O)[C@H](Cc1ccccc1)NC(=O)[C@@H](CCCCN)NC(=O)CNC(=O)CNC(=O)[C@@H](CCCCN)NC(=O)[C@@H](CCCCN)NC(=O)[C@H](CCSC)NC(=O)[C@H](CCSC)NC(=O)[C@@H](CCCCN)NC(=O)[C@@H](N)CCCCN)[C@@H](C)O)[C@@H](C)CC)C(=O)N[C@@H](CCCNC(=N)N)C(=O)O` [KU-5878-K4-D] (H-K[dK]MM[dK][dK]GG[dK]FGTFMAIGMGIR-OH), in [1], the “hemolysis of red blood cells” value is “little hemolysis”.

Turning to KKMMKKGGKFGTFMAIGMGIR [KU-5878-K4], the “MBC value” in series [2] worked out at 5 µg/mL; in [3], 5 µg/mL; in series [4], 5 µg/mL; in [5], 5 µg/mL; in series [6], 5 µg/mL; in [7] it was 4 µg/mL. Besides, the “MBC value” in series [8] and in [9] was 5 µg/mL each time. Further, the “hemolysis of red blood cells” value in [1] was “little hemolysis”.
